From patent US9133235B2, “Macrocyclic antagonists of the motilin receptor for treatment of gastrointestinal dysmotility disorders” (Ocera Therapeutics, Inc., priority 2006, dated 2015) come the findings set out here.

Assay [1] deals with T1, human motilin receptor (Homo sapiens, UniProt O43193). Kind of assay: Competitive radioligand binding assay (motilin receptor). More on the design: purchased PerkinElmer (SignalScreen) 6110544; host or cells: CHO cells, stably transfected; membranes. Conditions: [125I]-motilin competition, membranes of CHO cells with human motilin receptor; read-out: Ki. The procedure: A. Competitive Radioligand Binding Assay (Motilin Receptor)
The competitive binding assay at the human motilin receptor was carried out analogously to assays described in the literature.
• Membranes were prepared from CHO cells stably transfected with the human motilin receptor and utilized at a quantity of 1.5 μg/assay point. [PerkinElmer™ SignalScreen Product #6110544] • [^125I]-Motilin (PerkinElmer, #NEX-378); final concentration: 0.04-0.06 nM • Motilin (Bachem™, #H-4385); final concentration: 1 μM • Multiscreen Harvest plates-GF/B (Millipore™, #MAHFB1H60) • Deep-well polypropylene titer plate (Beckman Coulter™, #267006) • TopSeal-A (PerkinElmer, #6005185) • Bottom seal (Millipore, #MATAH0P00) • MicroScint-0 (PerkinElmer, #6013611) • Binding Buffer: 50 mM Tris-HCl (pH 7.4), 10 mM MgCl2, 1 mM EDTA, 0.1% BSA Assay Volumes: • 150 μL of membranes diluted in binding buffer • 10 μL of compound diluted in binding buffer • 10 μL of radioligand ([^125I]-Motilin) diluted in binding buffer Final Test Concentrations (N=11) for Compounds: • 10, 5.0, 2.0, 1.0, 0.50, 0.20, 0.10, 0.050, 0.020, 0.010, 0.0050 μM. Compound Handling:
Compounds were provided frozen on dry ice at a stock concentration of 10 mM diluted in 100% DMSO and stored at −20° C. until the day of testing. On the test day, compounds were allowed to thaw at room temperature and than diluted in assay buffer according to the desired test concentrations. Under these conditions, the maximum final DMSO concentration in the assay was 0.5%.
In deep-well plates, diluted cell membranes (1.5 μg/mL) are combined with 10 μL of either binding buffer (total binding, N=5), 1 μM motilin (non-specific binding, N=3) or the appropriate concentration of test compound. The reaction is initiated by addition of 10 μL of [^125I]-motilin (final conc. 0.04-0.06 nM) to each well. Plates are sealed with TopSeal-A, vortexed gently and incubated at room temperature for 2 hours. The reaction is arrested by filtering samples through pre-soaked (0.3% polyethyleneimine, 2 h) Multiscreen Harvest plates using a Tomtec Harvester, washed 9 times with 500 μL of cold 50 mM Tris-HCl (pH 7.4), and than plates are air-dried in a fumehood for 30 minutes. A bottom seal is applied to the plates prior to the addition of 25 μL of MicroScint-0 to each well. Plates are than sealed with TopSeal-A and counted for 30 sec per well on a TopCount Microplate Scintillation and Luminescence Counter (PerkinElmer) where results are expressed as counts per minute (cpm).
Data are analyzed by GraphPad™ Prism® (GraphPad Software, San Diego, Calif.) using a variable slope non-linear regression analysis.
[formula] where total and non-specific binding represent the cpm obtained in the absence or presence of 1 μM motilin, respectively.

For assay [2], the target named is T1, human motilin receptor. The experiment in a line: Aequorin functional assay (motilin receptor). The conditions noted are these: functional activity, antagonist testing vs motilin 0.5 nM (EC80). Type of assay: cell-based. Also on record: host or cells: CHO-K1 cells co-expressing Gα16 and mitochondrially targeted Aequorin. Here is the method: B. Aequorin Functional Assay (Motilin Receptor)
The evaluation of compounds of the invention for functional activity can be conducted according to literature methods or as described below. (Carreras, C. W.; Siani, M. A.; Santi, D. V.; Dillon, S. B. Anal. Biochem. 2002, 300, 146-151.)
• Membranes were prepared using AequoScreen™ (EUROSCREEN, Belgium) cell lines expressing the human motilin receptor (cell line ES-380-A; receptor accession #AF034632). This cell line is constructed by transfection of the human motilin receptor into CHO-K1 cells co-expressing Gα16 and the mitochondrially targeted Aequorin (Ref. #ES-WT-A5). • Motilin (Bachem, #H-4385) • Assay buffer: DMEM-F12 (Dulbeccoe's Modified Eagles Medium) with 15 mM HEPES and 0.1% BSA (pH 7.0) • Coelenterazine (Molecular Probes™, Leiden, The Netherlands) Final Test Concentrations (N=5) for Compounds: • 10, 3.16, 1.0, 0.316, 0.10 μM. Compound Handling:
Compounds were provided as dry films at a quantity of approximately 1.2 μmol in pre-formatted 96-well plates. Compounds were dissolved in 100% DMSO at a concentration of 10 mM and stored at −20° C. until further use. Daughter plates were prepared at a concentration of 500 μM in 30% DMSO with 0.1% BSA and stored at −20° C. until testing. On the test day, compounds were allowed to thaw at room temperature and than diluted in assay buffer according to the desired test concentrations. Under these conditions, the maximum final DMSO concentration in the assay was 0.6%.
Cells are collected from culture plates with Ca^2+ and Mg^2+-free phosphate buffered saline (PBS) supplemented with 5 mM EDTA, pelleted for 2 minutes at 1000×g, resuspended in assay buffer (see above) at a density of 5×10^6 cells/mL and incubated overnight in the presence of 5 μM coelenterazine. After loading, cells were diluted with assay buffer to a concentration of 5×10^5 cells/mL.
For agonist testing, 50 μL of the cell suspension was mixed with 50 μL of the appropriate concentration of test compound or motilin (reference agonist) in 96-well plates (duplicate samples). The emission of light resulting from receptor activation was recorded using the Functional Drug Screening System 6000 ‘FDSS 6000’ (Hamamatsu Photonics K. K., Japan).
For antagonist testing, an approximate EC80 concentration of motilin (i.e. 0.5 nM; 100 μL) was injected onto the cell suspension containing the test compounds (duplicate samples) 15-30 minutes after the end of agonist testing and the consequent emission of light resulting from receptor activation was measured as described in the paragraph above.
Results are expressed as Relative Light Units (RLU). Concentration response curves were analyzed using GraphPad™ Prism® (GraphPad Software, San Diego, Calif.) by non-linear regression analysis (sigmoidal dose-response) based on the equation E=Emax/(1+EC50/C)n where E is the measured RLU value at a given agonist concentration (C), Emax is the maximal response, EC50 is the concentration producing 50% stimulation and n is the slope index. For agonist testing, results for each concentration of test compound were expressed as percent activation relative to the signal induced by motilin at a concentration equal to the EC80 (i.e. 0.5 nM). For antagonist testing, results for each concentration of test compound were expressed as percent inhibition relative to the signal induced by motilin at a concentration equal to the EC80 (i.e. 0.5 nM).

A value given as a limit tells only on which side of the number the result lay.

T1 sequence (O43193 whole entry): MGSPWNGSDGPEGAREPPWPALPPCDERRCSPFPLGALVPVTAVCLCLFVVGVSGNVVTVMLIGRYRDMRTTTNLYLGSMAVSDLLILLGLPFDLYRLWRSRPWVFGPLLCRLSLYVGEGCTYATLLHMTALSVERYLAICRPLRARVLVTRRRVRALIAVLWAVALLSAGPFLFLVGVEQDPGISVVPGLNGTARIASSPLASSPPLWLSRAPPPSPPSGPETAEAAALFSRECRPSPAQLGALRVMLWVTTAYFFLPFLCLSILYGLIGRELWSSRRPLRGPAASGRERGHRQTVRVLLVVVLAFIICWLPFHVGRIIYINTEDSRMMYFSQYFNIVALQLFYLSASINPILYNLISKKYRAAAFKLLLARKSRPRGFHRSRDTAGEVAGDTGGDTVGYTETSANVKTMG

Broadly, the Ki is a measure of affinity in units of concentration, obtained from inhibition or displacement. Usually IC50 stands for the concentration needed to halve the response being measured. As to `CC(C)[C@H]1NC(=O)[C@@H](Cc2cccc(F)c2)N[C@@H](C)COc2ccccc2C[C@H](C)CNC(=O)[C@H](CNc2ncccn2)NC1=O` [Compound 550], at human motilin receptor [1], the Ki was at most 10 nM. The compound further registered a concentration for half-maximal inhibition (IC50) against human motilin receptor [2] of at most 1 nM.

`CC(C)[C@H]1NC(=O)[C@@H](Cc2cccc(Cl)c2)NCCOc2ccccc2C[C@@H](C)CNC(=O)[C@H](CC2CC2)NC1=O` [Compound 586]: at human motilin receptor [1], the inhibition constant (Ki) was at most 100 nM. For the same compound, the IC50 against human motilin receptor [2] was at most 100 nM.

As for `CCC[C@@H]1NC(=O)[C@@H](C(C)C)NC(=O)[C@@H](Cc2cccc(F)c2)N[C@@H](C)COc2ncccc2CCCNC1=O` [Compound 574], on human motilin receptor [1], the inhibition constant Ki was at most 100 nM. The compound also registered a half-maximal inhibitory concentration (IC50) against human motilin receptor [2] of at most 1000 nM.

Turning to `CC(C)[C@H]1NC(=O)[C@@H](Cc2cccc(C(F)(F)F)c2)NCCOc2ccccc2CCCNC(=O)[C@H](CN=[N+]=[N-])NC1=O` [Compound 537], at human motilin receptor [1], the inhibition constant Ki was at most 10 nM. The same compound gave an IC50 on human motilin receptor [2] of at most 1 nM.

Consider `CC(C)[C@H]1NC(=O)[C@@H](Cc2cccc(F)c2)N[C@@H](C)COc2ccccc2CCCNC(=O)[C@H](CN2CCOCC2)NC1=O` [Compound 534], for which, on human motilin receptor [1], the inhibitory constant (Ki) is at most 100 nM. Moreover, the IC50 against human motilin receptor [2] is at most 10 nM.

Turning to `CC(C)[C@H]1NC(=O)[C@@H](Cc2cccc(F)c2)N[C@@H](C)COc2ccccc2CCCNC(=O)[C@H](CN=[N+]=[N-])NC1=O` [Compound 538], the inhibition constant Ki at human motilin receptor [1] was at most 10 nM. The compound further came in with a half-inhibitory concentration (IC50) at human motilin receptor [2] of at most 1 nM.

Consider `CCC[C@@H]1NC(=O)[C@@H](C(C)C)NC(=O)[C@@H](Cc2cccc(F)c2)N[C@@H](C)COc2cnccc2CCCNC1=O` [Compound 565], for which the Ki on human motilin receptor [1] is at most 10 nM. Also, the concentration for half-maximal inhibition (IC50) at human motilin receptor [2] was at most 10 nM.

Consider `CCC[C@@H]1NC(=O)[C@@H](C(C)C)NC(=O)[C@@H](Cc2cccc(F)c2)N[C@@H](C)COc2cccnc2CCCNC1=O` [Compound 573], for which, at human motilin receptor [1], the Ki was at most 100 nM. On human motilin receptor [2], this compound gave a concentration for half-maximal inhibition (IC50) of at most 10 nM.

For `CCC[C@@H]1NC(=O)[C@@H](C(C)C)NC(=O)[C@@H](Cc2cccc(F)c2)N[C@H](C)COc2ccccc2CCCNC1=O` [Compound 513], the Ki at human motilin receptor [1] is at most 100 nM. On human motilin receptor [2], this compound registered a half-inhibitory concentration (IC50) of at most 100 nM.

For `CCC[C@@H]1NC(=O)[C@@H](C(C)C)NC(=O)[C@@H](Cc2cccs2)N[C@@H](C)COc2ccccc2CCCNC1=O` [Compound 571], the Ki on human motilin receptor [1] was at most 10 nM. The half-inhibitory concentration (IC50) on human motilin receptor [2] was at most 10 nM.

`Cc1cnnn1C[C@@H]1NC(=O)[C@@H](C(C)C)NC(=O)[C@@H](Cc2cccc(F)c2)N[C@@H](C)COc2ccccc2CCCNC1=O` [Compound 536]: on human motilin receptor [1], the inhibitory constant (Ki) is at most 100 nM. The 50% inhibitory concentration (IC50) against human motilin receptor [2] is at most 100 nM.

For the compound `CCC[C@@H]1NC(=O)[C@@H](C)NC(=O)[C@@H](Cc2cccc(F)c2)N[C@@H](C)COc2ccccc2CCCNC1=O` [Compound 557], the inhibition constant (Ki) at human motilin receptor [1] is at most 10 nM. Besides, the IC50 against human motilin receptor [2] was at most 10 nM.

Regarding `CNC[C@@H]1NC(=O)[C@@H](C(C)C)NC(=O)[C@@H](Cc2cccc(F)c2)N[C@@H](C)COc2ccccc2C[C@H](C)CNC1=O` [Compound 546], the inhibitory constant (Ki) at human motilin receptor [1] was at most 10 nM. In addition, the concentration for half-maximal inhibition (IC50) on human motilin receptor [2] is at most 1 nM.

Regarding `CC(C)[C@H]1NC(=O)[C@@H](Cc2cccc(F)c2)N[C@@H](C)COc2ccccc2CCCNC(=O)[C@H](CN(C)C)NC1=O` [Compound 529], on human motilin receptor [1], the Ki is at most 10 nM. Moreover, the 50% inhibitory concentration (IC50) on human motilin receptor [2] was at most 10 nM.

For the compound `CC(C)[C@H]1NC(=O)[C@@H](Cc2cccc(F)c2)N[C@@H](C)COc2ccccc2CCCNC(=O)[C@H](CN2CCCC2)NC1=O` [Compound 533], at human motilin receptor [1], the Ki was at most 100 nM. Moreover, the half-inhibitory concentration (IC50) on human motilin receptor [2] was at most 10 nM.

Consider `C[C@H]1COc2ccccc2CCCNC(=O)[C@H](CC2CC2)NC(=O)[C@@H](C2CC2)NC(=O)[C@@H](Cc2cccc(F)c2)N1` [Compound 555], for which the Ki on human motilin receptor [1] was at most 10 nM. This compound gave a concentration for half-maximal inhibition (IC50) against human motilin receptor [2] of at most 1 nM.

With `CC(C)[C@H]1NC(=O)[C@@H](Cc2cccc(F)c2)N[C@@H](C)COc2ccccc2C[C@H](C)CNC(=O)[C@H](CN)NC1=O` [Compound 544], the Ki at human motilin receptor [1] is at most 10 nM. Moreover, the IC50 against human motilin receptor [2] is at most 1 nM.

On to `CC(C)[C@H]1NC(=O)[C@@H](Cc2cccc(C(F)(F)F)c2)NCCOc2ccccc2CCCNC(=O)[C@H](CN2CCCC2)NC1=O` [Compound 532], for which the inhibition constant (Ki) at human motilin receptor [1] is at most 10 nM. The compound further had a half-inhibitory concentration (IC50) at human motilin receptor [2] of at most 100 nM.

On to `CNC[C@@H]1NC(=O)[C@@H](C(C)C)NC(=O)[C@@H](Cc2cccc(F)c2)N[C@@H](C)COc2ccccc2CCCNC1=O` [Compound 548], for which, on human motilin receptor [1], the Ki was at most 10 nM. For the same compound, the IC50 against human motilin receptor [2] is at most 10 nM.
